Source: patent publication US7071168B2, “Anti-cancer compounds and methods related thereto” (The Regents of the University of Colorado, priority 1998, dated 2006)

Legend:
SCLC strain SHP-77 = test: Colorimetric tetrazolium (MTT) assay for cell survival, SCLC strain SHP-77; type: cell-based, human; conditions: SCLC strain SHP-77 in vitro
Protocol: In general, Anti-bradykinin activity was determined by the classical guinea pig ileum assay and on Chinese hamster ovary (CHO) cells expressing cloned human bradykinin B2 receptors. Anti-tumor activity was determined on cultured human cancer cell lines using the standard tetrazolium (MTT) assay.
Cell growth and survival were measured by a rapid colorimetric assay based on the tetrazolium salt MTT (3-(4,5-dimethylthiazol-2-yl)-2,5-diphenyl tetrazolium bromide) (Mosmann, J Immunol. Methods 65: 55–63, 1983, with minor modifications). Briefly, 1,000 normal lung fibroblasts or normal epithelial BEAS-2B cells, 1,000 or 5,000 viable non-SCLC cells or 10,000 viable SCLC cells were plated in 100 μL of growth medium in 96-well flat-bottomed microtiter plates. Cells were incubated overnight to allow recovery. Compounds to be tested were added to the cells in triplicate in a range of concentrations and the cells were incubated at 37° C., 5% CO2, with 100% humidity. Control cells were treated in the same way without antagonists. […] Plates were incubated for 4 days, allowing sufficient time for cell replication and compound-induced cell death to occur. On day 5, 25 μL of a 2 mg/mL solution of MTT (Sigma) dissolved in RMPI-1640was added to each well. The plate was incubated for 4 h at 37° C. The supernate was removed and the blue formazan complex was dissolved by adding 100 μL of 0.02 N HCl in 75% isopropanol to all wells. Absorbance was immediately determined using a scanning multiwell plate reader. B9870 caused 50% cell death at a concentration of 0.15 μM under these conditions.

[1] = tested on: bradykinin response of isolated guinea pig ileum; test: Anti-bradykinin activity on isolated guinea pig ileum; conditions: isolated guinea pig ileum; pD2 of bradykinin is 7.4; higher numbers indicate higher potency
Method in brief: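 Terminal ileum segments (25 mm) from overnight-fasted male Hartley guinea pigs, in Krebs' solution gassed with 95% O2/5% CO2 under 1 g tension, equilibrated 1 h. Bradykinin concentration-effect curves constructed without and with test compounds.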

Row | Structure (SMILES) | MTT: ED50 for killing of SCLC strain SHP-77 in vitro (SCLC strain SHP-77) | GPI: pA2 for bradykinin antagonist activity on isolated guinea pig ileum [1]
1 | CC1(C)CC(NC(=O)[C@H](Cc2ccc3ccccc3c2)NC(=O)C(c2ccccc2)c2ccccc2)CC(C)(C)N1 [M272] | 9 µM | 5.2
2 | COc1cc(C=CC(=O)N[C@@H](Cc2ccc3ccccc3c2)C(=O)NC2CC(C)(C)NC(C)(C)C2)cc(OC)c1O [M274] | 36 µM | 4.7
3 | CC1(C)CC(NC(=O)[C@H](Cc2ccc3ccccc3c2)NC(=O)C(C2CCCCC2)C2CCCCC2)CC(C)(C)N1 [M276] | 4.6 µM | 5.3
4 | CC1(C)CC(NC(=O)[C@@H](NC(=N)CCCCCCCCCCCCC(=N)N[C@H](C(=O)NC2CC(C)(C)NC(C)(C)C2)C2Cc3ccccc3C2)C2Cc3ccccc3C2)CC(C)(C)N1 [M280] | 6 µM | 5.2
5 | CC1(C)CC(NC(=O)C(Cc2ccc3ccccc3c2)NC(=O)CCSSCCC(=O)NC(Cc2ccc3ccccc3c2)C(=O)NC2CC(C)(C)NC(C)(C)C2)CC(C)(C)N1 (stereo not drawn) [M286] | 24 µM | 5.1
6 | CC1(C)CC(NC(=O)C(Cc2ccc3ccccc3c2)NC(=O)OC(C)(C)C)CC(C)(C)N1 (stereo not drawn) [M288A] | >85 µM | 5.2
7 | CC1(C)CC(NC(=O)C(Cc2ccc3ccccc3c2)NC(=O)OC(C)(C)C)CC(C)(C)N1 (stereo not drawn) [M288] | Inact | 5.2
8 | CC1(C)CC(NC(=O)C(Cc2ccc3ccccc3c2)NC(=O)c2nc(Cl)c(Cl)c(N)c2Cl)CC(C)(C)N1 (stereo not drawn) [M302] | 3.5 µM | 5.2
9 | CC1CN(C(=O)[C@H](Cc2ccc3ccccc3c2)NC(=N)CCCCCCCCCCCCC(=N)N[C@@H](Cc2ccc3ccccc3c2)C(=O)N2CC(C)OC(C)C2)CC(C)O1 (stereo partly drawn) [M304] | 4.2 µM | 5.9
10 | CC1(C)CC(NC(=O)C(Cc2ccc3ccccc3c2)NC(=O)C=Cc2ccc(N)cc2)CC(C)(C)N1 (stereo not drawn) [M308] | >75 µM | 5.0
11 | CC1(C)CC(NC(=O)C(Cc2ccc3ccccc3c2)NC(=O)C=Cc2ccc(C(F)(F)F)cc2)CC(C)(C)N1 (stereo not drawn) [M312] | 3.2 µM | 5.5
12 | Cc1cc(NC(=O)C(Cc2ccc3ccccc3c2)NC(=O)C=Cc2c(F)c(F)c(F)c(F)c2F)c2ccccc2n1 (stereo not drawn) [M314] | 25 µM | 4.6
13 | CC1(C)CC(NC(=O)C(Cc2ccc(OCc3ccccc3)cc2)NC(=O)C=Cc2c(F)c(F)c(F)c(F)c2F)CC(C)(C)N1 (stereo not drawn) [M318] | 3.6 µM | 5.1
14 | CN(C)c1ccc(C=CC(=O)NC(Cc2ccc3ccccc3c2)C(=O)NC2CC(C)(C)NC(C)(C)C2)cc1 (stereo not drawn) [M324] | 3 µM | 5.2
15 | CC1(C)CC(NC(=O)[C@H](Cc2csc3ccccc23)NC(=N)CCCCCCCCCCCCC(=N)N[C@@H](Cc2csc3ccccc23)C(=O)NC2CC(C)(C)NC(C)(C)C2)CC(C)(C)N1 [M436-2] | 4.5 µM | 5.8
16 | CN(C)c1ccc(C=CC(=O)NC(Cc2csc3ccccc23)C(=O)NC2CC(C)(C)NC(C)(C)C2)cc1 (stereo not drawn) [M448] | 2.7 µM | 5.7
17 | CN1CCN(NC(=O)[C@H](Cc2ccc3ccccc3c2)NC(=O)C=Cc2ccc(NC(=O)CCCCCCCCCCC(=O)O)cc2)CC1 [M480-1] | 45 µM | 5.1

Row | Structure (SMILES) | MTT: ED50 for killing of SCLC strain SHP-77 in vitro (SCLC strain SHP-77) | GPI: pA2 for bradykinin antagonist activity on isolated guinea pig ileum [1]
18 | COC(=O)CCCCCCCCC(=O)Nc1ccc(C=CC(=O)NC(Cc2csc3ccccc23)C(=O)NC2CC(C)(C)NC(C)(C)C2)cc1 (stereo not drawn) [M506] | 11 µM | 4.9
19 | CC1(C)CC(NC(=O)C(Cc2ccc3ccccc3c2)NC(=O)COc2c(F)c(F)c(F)c(F)c2F)CC(C)(C)N1 (stereo not drawn) [M568] | 10 µM | 5.8
20 | CN(C(=O)C(Cc1ccc(OCc2c(Cl)cccc2Cl)cc1)NC(=O)C=Cc1c(F)c(F)c(F)c(F)c1F)C1CC(C)(C)NC(C)(C)C1 (stereo not drawn) [M592] | 1.5 µM | 4.9
21 | CCOC(=O)N1CCC(NC(=O)C(Cc2ccc3ccccc3c2)NC(=O)C=Cc2ccc(N)cc2)CC1 (stereo not drawn) [M604] | 43 µM | 4.5
22 | CC1(C)CC(NC(=O)C(Cc2cccc3ccccc23)NC(=O)C=Cc2ccc(NC(=O)CCCCCCCCCCC(=O)Nc3ccc(C=CC(=O)NC(Cc4cccc5ccccc45)C(=O)NC4CC(C)(C)NC(C)(C)C4)cc3)cc2)CC(C)(C)N1 (stereo not drawn) [M616] | 1.4 µM | 5.4
23 | CN(C(=O)C(Cc1ccc(OCc2c(Cl)cccc2Cl)cc1)NC(=O)C=Cc1c(F)c(F)c(F)c(F)c1F)C1CC(C)(C)N(C)C(C)(C)C1 (stereo not drawn) [M622] | 1.2 µM | 5.7
24 | CN(C)c1cccc2c(S(=O)(=O)NC(Cc3ccc(OCc4c(Cl)cccc4Cl)cc3)C(=O)N(C)C3CC(C)(C)NC(C)(C)C3)cccc12 (stereo not drawn) [M624] | 1.4 µM | 5.1
25 | CN(C(=O)C(Cc1ccc(OCc2c(Cl)cccc2Cl)cc1)NC(=O)C=Cc1cccnc1)C1CC(C)(C)NC(C)(C)C1 (stereo not drawn) [M626] | 3.7 µM | 4.8
26 | CN(C(=O)C(Cc1ccc(OCc2c(Cl)cccc2Cl)cc1)NC(=O)C=Cc1ccccc1)C1CC(C)(C)NC(C)(C)C1 (stereo not drawn) [M628] | 1.6 µM | 5.2
27 | CN(C)c1ccc(C=CC(=O)NC(Cc2ccc(OCc3c(Cl)cccc3Cl)cc2)C(=O)N(C)C2CC(C)(C)NC(C)(C)C2)cc1.O=C(O)C(F)(F)F (stereo not drawn) [M630, Dmac-OC2Y-Matp.TFA] | 1.6 µM | 5.0
28 | CN(C(=O)[C@H](Cc1ccc(OCc2c(Cl)cccc2Cl)cc1)NC(=O)c1nc(Cl)c(Cl)c(N)c1Cl)C1CC(C)(C)NC(C)(C)C1 [M632] | 1.4 µM | 5.4
29 | CC1(C)CC(NC(=O)C(Cc2ccc(NS(C)(=O)=O)cc2)NC(=O)C=Cc2c(F)c(F)c(F)c(F)c2F)CC(C)(C)N1 (stereo not drawn) [M648] | Inact | 5.0
30 | CN(C(=O)C(Cc1ccc(OCc2c(Cl)cccc2Cl)cc1)NC(=O)CCc1ccccc1)C1CC(C)(C)N(C)C(C)(C)C1 (stereo not drawn) [M652] | 7.5 µM | 5.7
31 | CC1=C(CC(=O)NC2CC(C)(C)NC(C)(C)C2)c2cc(F)ccc2C1=Cc1ccc([S+](C)[O-])cc1 (stereo not drawn) [M654] | Inact | 4.5
32 | CC1=C(CC(=O)NC(Cc2ccc3ccccc3c2)C(=O)NC2CC(C)(C)NC(C)(C)C2)c2cc(F)ccc2C1=Cc1ccc([S+](C)[O-])cc1 (stereo not drawn) [M656] | 13 µM | 5.4
33 | CC1(C)CC(NC(=O)C(NC(=O)C=Cc2c(F)c(F)c(F)c(F)c2F)C(C)(C)C)CC(C)(C)N1 (stereo not drawn) [M662] | Inact | 5.2
